Where two headings read alike, the source gives them in different places.
Columns and labels:
Type in all cases: in vivo
spinal rat = experiment: Electroencephalographic consequences of cerebral hypoxia induced by temporary ischemia in rat; conditions: for Cortical recovery time / Cortical resistance time: rat ischemia, 5 min prior; for Cortical recovery time: saline 19.8 ± 1.3; for Cortical resistance time: saline 22.3 ± 0.6
Experimental: 3. Electroencephalographic consequences of cerebral hypoxia induced by temporary ischemia in rat
In spinal rat, the effects of a temporary cerebral ischemic hypoxia obtained by ligation of the vertebral arteries and clamping, during 60 seconds, of the carotid arteries, are investigated at the level of the electrocorticogram (recorded in fronto-parietal lead). The following times are determined:
on the one hand, the "cortical resistance" time, i.e., the period of time which elapses between failure of the cerebral circulation and the appearance, in the recording, of the "dectric silence"disappearance of cortical electrogenesis), and
on the other hand, the "cortical recovery" time, i.e., the period of time which elapses between unclamping of the carotid arteries and the reappearance of a cortical electrogenesis.
The test materials are administered intravenously 5 minutes prior to ischemia. The results obtained in the treated animals are compared with those obtained in a lot of reference animals according to Student's "t" method.

curarized cat = experiment: Electroencephalographic consequences of cerebral hypoxia induced by temporary asphyxia in cat; conditions: for Cortical recovery time / Cortical resistance time: cat asphyxia, 5 min prior; for Cortical recovery time: saline 27.3 ± 2.3; for Cortical resistance time: saline 108 ± 5.6
From the text: 5. Electroencephalographic consequences of cerebral hypoxia induced by temporary asphyxia in cat
The effects of an asphyxic cerebral hypoxia, obtained by temporary discontinuance of the artificial respiration of a curarized cat are investigated at the level of the electrocorticogram (recorded in parieto-occipital lead), by determining:
on the one hand, the "cortical resistance" time, i.e., the period of time which elapses between the discontinuance of the artificial respiration and the appearance in the recording of the "electric silence" (disappearance of cortical electrogenesis),
on the other hand, the "cortical recovery" time, i.e., the period of time which elapses between the resumption of artificial respiration and the reappearance of a cortical electrogenesis. The resumption of artificial respiration is effected in all cases 45 seconds after appearance of the cortical silence.
(§1) The test materials are administered intravenously 5 minutes prior to asphyxia. The results obtained in the treated animals are compared with those obtained in a lot of reference animals, according to Student's "t" method.

curarized rat = experiment: Electroencephalographic consequences of cerebral hypoxia induced by temporary asphyxia in rat; conditions: for Cortical recovery time / Cortical resistance time: rat asphyxia, 5 min prior; for Cortical recovery time: saline 42.3 ± 7.3; for Cortical resistance time: saline 77.8 ± 2.9
From the text: 4. Electroencephalographic consequences of a cerebral hypoxia induced by temporary asphyxia in rat
The effects of an asphyxic cerebral hypoxia, obtained by a two-minute interruption of the artificial respiration of a curarized rat are investigated at the level of the electro-corticogram (recorded in fronto-parietal lead) by determining:
on the one hand the "cortical resistance" time, i.e., the period of time which elapses between the discontinuation of artificial respiration and the appearance in the recording of the "electric silence" (disappearance of cortical electrogenesis),
on the other hand, the "cortical recovery" time, i.e., the period of time which elapses between the resumption of artificial respiration and the reappearance of a cortical electrogenesis.
as §1

mice [1] = experiment: Survival time of mice under a confined atmosphere; conditions: for ED50: Mus musculus, protected = survival time greater by at least 30% than reference animals, read-out: ED50 (protects 50% of the test animals)
Experimental: 2. Survival time of mice under a confined atmosphere
Mice are individually placed in sealed 250 ml glass jars. Survival time is measured taking respiratory failure as a criterion of death.
The test materials are administered as aqueous solutions:
either intraperitoneally, in which case the animals are submitted to the test 30 minutes after injection,
or orally, in which case the animals are submitted to the test 1.5 hour after administration.
The dosage of material (ED50) which protects 50% of the test animals is determined: is considered as protected, a mouse having a survival time greater by a factor of at least 30% with respect to the average survival time of the reference animals.

[2] = Acute toxicity in mice (i.v.); conditions: mouse, in vivo, iv
Experimental: (§2) 1. Acute toxicity in mice
(§3) The dosage of test material which, on intravenous administration in mice causes the death of 50% of the test animals is determined (death rate is determined after 10 days of observation).

mice [3] = experiment: Acute toxicity in mice (i.v.); conditions: mice
Experimental: as §2, §3

[4] = ip, 0.5 h, i.p., 30 min before test
[5] = 2.5 mg/kg i.v., n=6, mean ± standard deviation from mean
[6] = 2.5 mg/kg i.v., n=8, mean ± standard deviation from mean

Compound: COC(=O)[C@@]1(O)C[C@@H]2CCCN3CCc4c(n1c1ccccc41)[C@H]23 (relative stereo) [Deethylvincamine, (±) 20-Deethyl-vincamine]
- Cortical recovery time (spinal rat; 0.25 mg/kg i.v., n=6): 20.3 ± 2.7 s
- Cortical resistance time (spinal rat; 0.25 mg/kg i.v., n=6): 25.3 ± 1.2 s
- Cortical recovery time (spinal rat; 0.5 mg/kg i.v., n=6, (*) significant P < 0.05 vs controls): 14.3 ± 1.1 s
- Cortical resistance time (spinal rat; 0.5 mg/kg i.v., n=6): 24.3 ± 1.6 s
- protective activity (decrease of time required for resumption of cortical electrogenesis) (spinal rat; rat, ischemia, 0.5 mg/kg i.v.): marked protective activity
- Cortical recovery time (curarized cat; 0.5 mg/kg i.v., n=6, (*) significant P <0.05 vs controls): 19.0 ± 2.0 s
- Cortical resistance time (curarized cat; 0.5 mg/kg i.v., n=6): 98 ± 10.8 s
- protective activity (decrease of time required for resumption of cortical electrogenesis) (curarized cat; cat, asphyxia, 0.5 mg/kg i.v.): exhibits a protective activity
- Cortical recovery time (curarized rat; 0.5 mg/kg i.v., n=6): 38.8 ± 5.9 s
- Cortical resistance time (curarized rat; 0.5 mg/kg i.v., n=6): 84.2 ± 4.5 s
- Cortical recovery time (curarized rat; 1 mg/kg i.v., n=7, (*) significant P<0.05 vs controls): 23.0 ± 5.0 s
- Cortical resistance time (curarized rat; 1 mg/kg i.v., n=7): 78.0 ± 5.6 s
- protective activity (decrease of time required for resumption of cortical electrogenesis) (curarized rat; rat, asphyxia, 1 mg/kg i.v.): marked protective activity
- ED50 (mice [1]; [4]): 8 mg/kg
- ED50 (mice [1]; po, 1.5 hour before test): 24.5 mg/kg
- Number of mice protected (mice [1]; i.p., 3 mg/kg, 30 min before test): 1/6
- Number of mice protected (mice [1]; i.p., 9 mg/kg, 30 min before test): 3/6
- Number of mice protected (mice [1]; i.p., 27 mg/kg, 30 min before test): 6/6
- protective activity (increase of the survival time) (mice [1]; mice, confined atmosphere, i.p. and p.o., compared with vincamine): markedly superior to that of vincamine
- Number of mice protected (mice [1]; p.o., 7.5 mg/kg, 1.5 hour before test): 0/6
- Number of mice protected (mice [1]; p.o., 15 mg/kg, 1.5 hour before test): 1/6
- Number of mice protected (mice [1]; p.o., 30 mg/kg, 1.5 hour before test): 4/6
- LD50 at 240 h [2]: 40 mg/kg
- acute toxicity compared with vincamine (mice [3]): substantially of the same order of magnitude as that of vincamine

Compound: CC[C@]12CCCN3CCc4c(n(c5ccccc45)[C@@](O)(C(=O)OC)C1)[C@@H]32 (racemic) [Vincamine, (.-+.)-Vincamine]
- Cortical recovery time (spinal rat; [5]): 21.8 ± 2.0 s
- Cortical resistance time (spinal rat; [5]): 22.2 ± 1.2 s
- Cortical recovery time (spinal rat; 5 mg/kg i.v., n=7): 19.9 ± 3.0 s
- Cortical resistance time (spinal rat; 5 mg/kg i.v., n=7): 23.4 ± 0.9 s
- protective activity (spinal rat; rat, ischemia, 2.5 and 5 mg/kg i.v.): free from any protective activity
- Cortical recovery time (curarized cat; [6]): 24.6 ± 3.4 s
- Cortical resistance time (curarized cat; [6]): 101 ± 13.9 s
- Cortical recovery time (curarized cat; 5 mg/kg i.v., n=8, (*) significant P <0.05 vs controls): 19.6 ± 1.4 s
- Cortical resistance time (curarized cat; 5 mg/kg i.v., n=8): 101 ± 5.6 s
- protective activity (curarized cat; cat, asphyxia, 5 mg/kg i.v. (tenfold dosage)): apparent only at a tenfold dosage of 5 mg/kg i.v.
- Cortical recovery time (curarized rat; [5]): 55.5 ± 20.2 s
- Cortical resistance time (curarized rat; [5]): 83.3 ± 6.4 s
- Cortical recovery time (curarized rat; 5.0 mg/kg i.v., n=6): 32.8 ± 1.8 s
- Cortical resistance time (curarized rat; 5.0 mg/kg i.v., n=6): 89.0 ± 7.6 s
- protective activity (curarized rat; rat, asphyxia, 2.5 and 5 mg/kg i.v.): free from any protective activity
- ED50 (mice [1]; [4]): 18 mg/kg
- ED50 (mice [1]; po, 1.5 hour before test): 40 mg/kg
- Number of mice protected (mice [1]; i.p., 1 mg/kg, 30 min before test): 0/6
- Number of mice protected (mice [1]; i.p., 5 mg/kg, 30 min before test): 1/6
- Number of mice protected (mice [1]; i.p., 25 mg/kg, 30 min before test): 4/6
- Number of mice protected (mice [1]; p.o., 25 mg/kg, 1.5 hour before test): 2/6
- Number of mice protected (mice [1]; p.o., 50 mg/kg, 1.5 hour before test): 4/6
- Number of mice protected (mice [1]; p.o., 100 mg/kg, 1.5 hour before test): 5/6
- LD50 at 240 h ([2]; mice, i.v., death rate after 10 days of observation): 62 mg/kg

Reference: patent publication US4033969A, “Vincamine derivatives” (Agence Nationale de Valorisation de la Recherche (ANVAR), priority 1972, dated 1977)
